In PubChem BioAssay AID220 (DTP/NCI, 2004):
Where “and” joins values, the source holds several entries; their conditions need not be identical. Equal values may be shown once. Inconclusive results are not listed. Starred links: 1 amine or outer side, 2 acyl side, 3 side chain; linkers in the order of their positions; H or OH if unused. Positions of bridges follow the written chain, without caps; N, C: chain ends. Non-standard residues stand in square brackets, D forms with d. Residues, ends and D or L forms follow the SMILES beside them. Chains are numbered I, II in the order given. Actinocin(9to1) = Cc1c2oc3c(C)ccc(C(=O)[*:1])c3nc-2c(C(=O)[*:2])c(N)c1=O; NMeV = CN[CH](C(=O)O)C(C)C; Sar = CNCC(=O)O

System: CD8F1 mice, subcutaneous mammary adenocarcinoma, T/C%
Assay: NCI In Vivo Anticancer Drug Screen. Data for tumor model Mammary Adenocarcinoma CD8F1 (subcutaneous) in CD8F1
Conditions: higher = larger tumour
Outline: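 Ratio of treated to vehicle-control outcome, based on either survival or tumor size, in mice bearing transplantable tumors given the test compound.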

[1] = endpoint: median tumor weight (est.), dose: 12.5 mg/kg/injection, schedule: Q07DX005 (ip), vehicle: Klucel (hydroxypropylcellulose) (HPC)
[2] = endpoint: median tumor weight (est.), dose: 25.0 mg/kg/injection, schedule: Q07DX005 (ip), vehicle: Klucel (hydroxypropylcellulose) (HPC)
[3] = endpoint: median tumor weight (est.), dose: 50.0 mg/kg/injection, schedule: Q07DX005 (ip), vehicle: Klucel (hydroxypropylcellulose) (HPC)

For `Cc1c2ccccc2cc2cccc[n+]12`, the T/C (endpoint: median tumor weight change, dose: 20.0 mg/kg/injection, schedule: Q01DX001 (ip), vehicle: saline) was 116 % of control, the T/C (endpoint: median tumor weight change, dose: 25.0 mg/kg/injection, schedule: Q01DX001 (ip), vehicle: saline) was 123 % of control and the T/C (endpoint: median tumor weight change, dose: 40.0 mg/kg/injection, schedule: Q01DX001 (ip), vehicle: saline) was 119 % of control. For the same compound, the T/C (endpoint: median tumor weight change, dose: 50.0 mg/kg/injection, schedule: Q01DX001 (ip), vehicle: saline) was 59 % of control.

With `CNC(=O)OCc1c(COC(=O)NC)c(-c2ccccc2)n(C)c1-c1ccccc1` the T/C (endpoint: median tumor weight change, dose: 31.25 mg/kg/injection, schedule: Q01DX001 (ip), vehicle: distilled water + Tween-80) was 54 % of control.

In the case of `CN(C)c1ccc2c(NCCCCCCNc3ccnc4cc(N(C)C)ccc34)ccnc2c1`, the T/C (endpoint: median tumor weight change, dose: 15.62 mg/kg/injection, schedule: Q01DX001 (ip), vehicle: distilled water + Tween-80 + alcohol) was 66 % of control, the T/C (endpoint: median tumor weight change, dose: 31.0 mg/kg/injection, schedule: Q01DX001 (ip), vehicle: distilled water + Tween-80 + alcohol) was 94 % of control and the T/C (endpoint: median tumor weight change, dose: 31.25 mg/kg/injection, schedule: Q01DX001 (ip), vehicle: distilled water + Tween-80 + alcohol) was 96 % of control. The T/C (endpoint: median tumor weight change, dose: 62.5 mg/kg/injection, schedule: Q01DX001 (ip), vehicle: distilled water + Tween-80 + alcohol) was 3 % of control, the T/C (endpoint: median tumor weight change, dose: 62.5 mg/kg/injection, schedule: Q01DX001 (ip), vehicle: distilled water + Tween-80) was 48 % of control and the T/C (endpoint: median tumor weight change, dose: 125.0 mg/kg/injection, schedule: Q01DX001 (ip), vehicle: distilled water + Tween-80 + alcohol) was 51 % of control. The T/C (endpoint: median tumor weight change, dose: 250.0 mg/kg/injection, schedule: Q01DX001 (ip), vehicle: distilled water + Tween-80 + alcohol) was 8 % of control and 28 % of control.

For `Nc1nc(-c2cccc3ccccc23)cc2ccccc12`, the T/C (endpoint: median tumor weight (est.), dose: 50.0 mg/kg/injection, schedule: Q07DX005 (ip), vehicle: saline with Tween-80) was 53 % of control, the T/C (endpoint: median tumor weight (est.), dose: 100.0 mg/kg/injection, schedule: Q07DX005 (ip), vehicle: saline with Tween-80) was 81 % of control and the T/C (endpoint: median tumor weight (est.), dose: 200.0 mg/kg/injection, schedule: Q07DX005 (ip), vehicle: saline with Tween-80) was 37 % of control.

For `Cc1c2oc3c(C)ccc(C(=O)NC4C(=O)NC(C(C)C)C(=O)N5CCCC5C(=O)N(C)CC(=O)N(C)C(C(C)C)C(=O)OC4C)c3nc-2c(C(=O)NC2C(=O)NC(C(C)C)C(=O)N3CCCC3C(=O)N(C)CC(=O)N(C)C(C(C)C)C(=O)OC2C)c(N)c1=O` (configuration not stated) (I: TVP[Sar][NMeV] / II: TVP[Sar][NMeV]; ester I:1-I:C, II:1-II:C; linker I:N-II:N via Actinocin(9to1); configuration not given here), the T/C (endpoint: median tumor weight (est.), dose: 0.5 mg/kg/injection, schedule: Q07DX005 (ip), vehicle: saline) was 26 % of control and 30 % of control and the T/C (endpoint: median tumor weight (est.), dose: 1.0 mg/kg/injection, schedule: Q07DX005 (ip), vehicle: saline) was 3 % of control and 20 % of control.

With `NC(Cc1cc([N+](=O)[O-])ccc1CN(CCCl)CCCl)C(=O)O` (configuration not stated) the T/C (endpoint: median tumor weight (est.), dose: 2.0 mg/kg/injection, schedule: Q07DX005 (ip), vehicle: Klucel (hydroxypropylcellulose) (HPC)) was 8 % of control.

For `NC(=O)/C=C/C(=O)c1c(Cl)cccc1Cl`, the T/C (endpoint: median tumor weight change, dose: 1.5 mg/kg/injection, schedule: Q01DX001 (ip), vehicle: saline with Tween-80) was 110 % of control, the T/C (endpoint: median tumor weight change, dose: 3.0 mg/kg/injection, schedule: Q01DX001 (ip), vehicle: saline with Tween-80) was 85 % of control and the T/C (endpoint: median tumor weight change, dose: 6.0 mg/kg/injection, schedule: Q01DX001 (ip), vehicle: saline with Tween-80) was 100 % of control. For the same compound, the T/C (endpoint: median tumor weight change, dose: 12.0 mg/kg/injection, schedule: Q01DX001 (ip), vehicle: saline with Tween-80) was 90 % of control, the T/C (endpoint: median tumor weight change, dose: 12.5 mg/kg/injection, schedule: Q01DX001 (ip), vehicle: saline with Tween-80) was 71 % of control and the T/C (endpoint: median tumor weight change, dose: 50.0 mg/kg/injection, schedule: Q01DX001 (ip), vehicle: saline with Tween-80) was 104 % of control. For the same compound, the T/C (endpoint: median tumor weight change, dose: 100.0 mg/kg/injection, schedule: Q01DX001 (ip), vehicle: saline with Tween-80) was 55 % of control.

For `O=C(Nc1ccc(N=C=S)cc1Cl)c1cc(Cl)cc(Cl)c1O`, the T/C [1] was 79 % of control, the T/C (endpoint: median tumor weight (est.), dose: 12.5 mg/kg/injection, schedule: Q07DX005 (ip), vehicle: saline) was 118 % of control and the T/C [2] was 49 % of control. For the same compound, the T/C (endpoint: median tumor weight (est.), dose: 25.0 mg/kg/injection, schedule: Q07DX005 (ip), vehicle: saline) was 96 % of control, the T/C [3] was 26 % of control and the T/C (endpoint: median tumor weight (est.), dose: 50.0 mg/kg/injection, schedule: Q07DX005 (ip), vehicle: saline) was 111 % of control. The T/C (endpoint: median tumor weight (est.), dose: 100.0 mg/kg/injection, schedule: Q07DX005 (ip), vehicle: saline) was 78 % of control.

`Cc1nn(CCO)c(C)c1N=[N+]([O-])c1c(C)nn(CCO)c1C` was tested, and the T/C (endpoint: median tumor weight (est.), dose: 6.25 mg/kg/injection, schedule: Q07DX005 (ip), vehicle: Klucel (hydroxypropylcellulose) (HPC)) was 57 % of control, the T/C [1] was 63 % of control and the T/C [2] was 91 % of control. The T/C [3] was 104 % of control and the T/C (endpoint: median tumor weight (est.), dose: 100.0 mg/kg/injection, schedule: Q07DX005 (ip), vehicle: Klucel (hydroxypropylcellulose) (HPC)) was 43 % of control.
